One series relates to rPEDV-NLuc. Nature of the series: microbe, parasite or virus in culture. The settings on record: for IC50: Vero cells, rPEDV-NLuc MOI 0.01, 1 h pre-treatment, 1.25-10 μM, NLuc activity at 20 h post-infection; for SI: selective index from CC50 and IC50. Format: cell-based, Porcine epidemic diarrhea virus (PEDV) YN150 strain.
The next series concerns wild-type PEDV. Nature of the series: Confirmation of anti-PEDV activity with wild-type PEDV by TCID50 in Vero cells. Format: cell-based, Porcine epidemic diarrhea virus (PEDV). Conditions: wild-type PEDV MOI 0.01, Vero cells, TCID50 and IFA; antioxidants 2.5, 5, 10 μM; NAC 50, 100, 200 μM.
Another series relates to PEDV-induced ROS. The series can be described thus: Detection of PEDV-induced intracellular ROS production with DCFH-DA. Conditions: 10 μM, wild-type PEDV MOI 0.01, Vero cells, 16 h post-infection. Format: cell-based.
A further series is described as follows: in vitro. The settings on record: African green monkey.
Where [1] appears, read: Porcine epidemic diarrhea virus, Vero.

Structures can show the parent of a compound that is named as a salt. Where two headings read alike, the source gives them in different places.

Broadly, the IC50 is the concentration that gives 50% inhibition.

On to `COc1cc(/C=C/c2ccc(O)c(O)c2)cc(OC)c1` [3′-Hydroxypterostilbene], for which the IC50 in the series on rPEDV-NLuc (read-out: IC50) came to 4.29 µM. In the series with rPEDV-NLuc, the SI is listed as >23.29. Moreover, the CC50 in the series with Vero cells (Vero cells, MTT assay) was > 100 µM.

Consider `CC[C@]12C=CCN3CC[C@]4(C(=C(C(=O)OC)C1)Nc1ccccc14)[C@@H]32.Cl` [Tabersonine hydrochloride], for which, in the series with rPEDV-NLuc (read-out: IC50), the IC50 worked out at 4.3 µM. In addition, the SI in the series on rPEDV-NLuc was determined as 19.23. This compound also showed a CC50 in the series with Vero cells (Vero cells, MTT assay) of 82.6 µM.

With Tannic acid, the IC50 in the series on rPEDV-NLuc (read-out: IC50) amounted to 4.37 µM. Further, in the series with rPEDV-NLuc, the SI is listed as >22.89. Moreover, in the series on Vero cells (Vero cells, MTT assay), the CC50 is > 100 µM.

As for `CC(=O)N[C@@H](CS)C(=O)O` [NAC, N-acetyl-L-cysteine], the “inhibition of PEDV replication, dose dependence” value with wild-type PEDV is “exhibited anti-PEDV activity in a dose-dependent manner”.

In the case of `CCc1c2c(nc3ccccc13)-c1cc3c(c(=O)n1C2)COC(=O)[C@]3(O)CC` [7-Ethylcamptothecin], the IC50 with rPEDV-NLuc (read-out: IC50) is < 1.25 µM. The SI in the series on rPEDV-NLuc is reported as >80. Also, the CC50 with Vero cells (Vero cells, MTT assay) is > 100 µM.

As for Tubeimoside I, in the series with rPEDV-NLuc (read-out: IC50), the IC50 was 4.21 µM. The compound further yielded an SI in the series on rPEDV-NLuc of 17.76. The CC50 in the series on Vero cells worked out at 74.8 µM.

With `O=c1ccc2cc(O)c(O)cc2o1` [Esculetin], in the series on PEDV-induced ROS, the “DCFH-DA fluorescence in PEDV-infected cells (fluorescence microscopy)” value (“DCFH-DA fluorescence” for short) was “only a few fluorescence signals were detected”. The IC50 with rPEDV-NLuc (setting [1]) is 5.97 µM. Besides, the SI with rPEDV-NLuc is given as >16.75. Further, the CC50 in the series “in vitro” was > 100 µM.

For `C=C1C(=O)[C@]23[C@H](O)[C@H]1CC[C@H]2[C@@]12CO[C@]3(O)[C@@H](O)[C@@H]1C(C)(C)CC[C@@H]2O` [Oridonin], the IC50 in the series on rPEDV-NLuc (setting [1]) was 3 µM. In “in vitro”, this compound gave a CC50 of 35 µM.

For the compound `Cc1cc(O)c2c(c1)C(=O)c1cc(O)cc(O)c1C2=O` [Emodin], in the series on rPEDV-NLuc (setting [1]), the IC50 came out at 2.1 µM. The SI in the series on rPEDV-NLuc was >50. The CC50 in “in vitro” is > 100 µM.

On to `O=C(/C=C/c1ccc(O)c(O)c1)OCCc1ccccc1` [Caffeic Acid Phenethyl Ester], for which the “DCFH-DA fluorescence” value in the series on PEDV-induced ROS is “only a few fluorescence signals were detected”. The IC50 in the series on rPEDV-NLuc (setting [1]) was 1.74 µM. The SI in the series with rPEDV-NLuc is >57.63. The CC50 in “in vitro” is > 100 µM.

In the case of `Cc1cc2c(C(C)C)c(O)c(O)c(C=O)c2c(O)c1-c1c(C)cc2c(C(C)C)c(O)c(O)c(C=O)c2c1O` [gossypol-Acetic acid], the IC50 with rPEDV-NLuc (setting [1]) was 2.9 µM. Further, the SI with rPEDV-NLuc is given as >30. For the same compound, the CC50 in the series “in vitro” was > 100 µM.

With `COc1ccc2c(c1)[nH]c1c(C)nccc12` [Harmine], in the series on rPEDV-NLuc, the IC50 was found to be 1.96 µM and the SI is recorded as >51.10.

As to `C[C@H]1[C@H](C)CC[C@]2(C(=O)O)CC[C@]3(C)C(=CC[C@@H]4[C@@]5(C)CCC(=O)C(C)(C)[C@@H]5CC[C@]43C)[C@H]12` [Ursonic acid], the “DCFH-DA fluorescence” value with PEDV-induced ROS was “only a few fluorescence signals were detected”. Besides, the IC50 in the series on rPEDV-NLuc (setting [1]) turned out to be 2.13 µM. The compound further showed an SI in the series on rPEDV-NLuc of 19.23. The compound further registered a CC50 in “in vitro” of 41 µM.

Consider `COc1cc(O)cc(O)c1C(=O)/C=C/c1ccccc1` [(E)-Cardamonin], for which the IC50 in the series on rPEDV-NLuc (read-out: IC50) was 2.15 µM. Moreover, the SI with rPEDV-NLuc is listed as >46.44. Further, the CC50 in the series with Vero cells (Vero cells, MTT assay) is > 100 µM.

Consider `C=CC1=C(C)c2cc3[nH]c(cc4nc(cc5[nH]c(cc1n2)c(C)c5CCC(=O)O)C(CCC(=O)O)=C4C)c(C)c3C=C` [Protoporphyrin IX], for which the IC50 in the series with rPEDV-NLuc (setting [1]) is < 1.25 µM. The SI in the series with rPEDV-NLuc is >80. Also, in the series “in vitro”, the CC50 was > 100 µM.

Turning to `C[C@@]1(C(=O)O)CC[C@]2(C)CC[C@]3(C)C4=CC(=O)c5c(cc(O)c(O)c5C=O)[C@]4(C)CC[C@@]3(C)[C@@H]2C1` [Demethylzeylasteral], the IC50 with rPEDV-NLuc (read-out: IC50) was determined as 2.37 µM. The SI in the series with rPEDV-NLuc stood at 16.27. The CC50 in the series with Vero cells worked out at 38.6 µM.

Take `COc1ccc2c(c1)[nH]c1c(C)nccc12` [Harmine hydrochloride]: in the series with rPEDV-NLuc (setting [1]), the IC50 was 1.33 µM. The SI in the series with rPEDV-NLuc is reported as >75.04. The CC50 in “in vitro” was > 100 µM.

Turning to `CC1=C(C(=O)OCCN(Cc2ccccc2)c2ccccc2)C(c2cccc([N+](=O)[O-])c2)C(P2(=O)OCC(C)(C)CO2)=C(C)N1` (centres unmarked) [Efonidipine, reference compound], the IC50 in the series with rPEDV-NLuc (setting [1]) was found to be 5.58 µM. In addition, the SI with rPEDV-NLuc is recorded as >17.93. In “in vitro”, the CC50 is > 100 µM.

Regarding `C=C(C)[C@@H]1CC[C@]2(C(=O)O)CC[C@]3(C)[C@H](CC[C@@H]4[C@@]5(C)CCC(=O)C(C)(C)[C@@H]5CC[C@]43C)[C@@H]12` [Betulonic acid], in the series on PEDV-induced ROS, the “DCFH-DA fluorescence” value is on record as “only a few fluorescence signals were detected”. Also, the IC50 in the series on rPEDV-NLuc (read-out: IC50) was < 1.25 µM. Further, the SI in the series with rPEDV-NLuc is on record as >49.52. This compound also registered a CC50 in the series on Vero cells (Vero cells, MTT assay) of 61.9 µM.

For `C[C@H](CCC(=O)O)[C@H]1CC[C@H]2[C@@H]3CC[C@@H]4C[C@H](O)CC[C@]4(C)[C@H]3CC[C@]12C` [Lithocholic acid], the “DCFH-DA fluorescence” value in the series on PEDV-induced ROS is on record as “only a few fluorescence signals were detected”. Also, the IC50 in the series with rPEDV-NLuc (setting [1]) stood at 2.37 µM. The SI in the series on rPEDV-NLuc was >42.12. Also, the CC50 in the series “in vitro” is > 100 µM.

Take `CC(Cc1ccc(O)c(O)c1)C(C)Cc1ccc(O)c(O)c1` (centres unmarked) [Nordihydroguaiaretic acid]: in the series with PEDV-induced ROS, the “DCFH-DA fluorescence” value is recorded as “only a few fluorescence signals were detected”. For the same compound, the IC50 in the series with rPEDV-NLuc (read-out: IC50) is 5 µM. Further, in the series on rPEDV-NLuc, the SI is given as >19.99. Also, in the series on Vero cells (Vero cells, MTT assay), the CC50 was > 100 µM.

`C[C@@H]1[C@H](O)[C@@H](C)/C=C/C=C/C=C/C=C/C=C/C=C/C=C/[C@H](O[C@@H]2O[C@H](C)[C@@H](O)[C@H](N)[C@@H]2O)C[C@@H]2O[C@](O)(C[C@@H](O)C[C@@H](O)[C@H](O)CC[C@@H](O)C[C@@H](O)CC(=O)O[C@H]1C)C[C@H](O)[C@H]2C(=O)O` [Amphotericin B, reference compound]: the IC50 with rPEDV-NLuc (setting [1]) is 2.91 µM. Also, the SI in the series with rPEDV-NLuc is >34.42. Moreover, the CC50 in the series “in vitro” is > 100 µM.

On to `C=CC(C)(C)c1cc(/C=C/C(=O)c2ccc(O)cc2)c(OC)cc1O` [Licochalcone A], for which the IC50 in the series on rPEDV-NLuc (read-out: IC50) was found to be 4 µM. The SI in the series on rPEDV-NLuc is recorded as >25. The CC50 in the series on Vero cells (Vero cells, MTT assay) is > 100 µM.

Source of the values: publication PMC8473292 (Viruses, 2021).
